The text below walks through data of PMC10486604 (Cancers, 2023).

In one series the target is T1, human NE (Homo sapiens, UniProt P08246).
T1 sequence (P08246 30-267): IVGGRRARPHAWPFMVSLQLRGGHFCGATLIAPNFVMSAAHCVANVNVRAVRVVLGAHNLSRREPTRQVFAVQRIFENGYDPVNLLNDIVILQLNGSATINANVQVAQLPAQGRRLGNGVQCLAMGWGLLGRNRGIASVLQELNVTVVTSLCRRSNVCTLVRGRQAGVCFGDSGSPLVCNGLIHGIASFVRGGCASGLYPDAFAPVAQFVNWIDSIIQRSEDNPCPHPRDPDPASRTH
The series can be described thus: Human NE biochemical cleavage assay. The settings on record: read-out: Km (cleavage to payload 1). Here is the method:
Then, 125 μL of pre-heated buffer (100 mM Tris pH 7.5, 150 mM NaCl, 10 mM CaCl2, and 0.05% BSA) was added to each incubation. The reaction was started by adding 0.5 or 1 nM activated mouse elastase (according to manufacturer’s protocol) or human NE to the reaction vials. A negative control without elastase was run under the same conditions. The reaction was stopped at 0, 4.5, 8, and 12 min by the addition of acidified acetonitrile/0.2% formic acid. Camptothecin was used as internal standard for the LC/MS/MS analysis.

Series [1] can be described thus: In vivo pharmacokinetics in 786-O tumor-bearing mice. Conditions: female, NMRI nu/nu, mouse, iv, 4 mg/kg. Here is the method: Plasma and tumor samples were collected and frozen at <−15 °C until sample analysis. Samples were analyzed for concentrations of respective SMDCs and the released payload 1 by LC/MS/MS. […] All pharmacokinetic parameters were calculated by non-compartmental methods.

For another series, the system named is LXFL529. As to the kind of experiment: PDX model LXFL529 (NSCLC), subcutaneous. The settings on record: across PDX models. It is filed as in vivo, mouse. The method, then: Studies were conducted according to all applicable international, national, and local laws and followed the national guidelines for the Care and Use of Laboratory Animals of the Society of Laboratory Animal Science (GV-SOLAS). All animal experiment protocols were approved by the Regional Council Committee on the Ethics of Animal Experiments. Non-small-cell lung (LXFL529) and renal (RXF2667) PDX mouse models comprised six groups each with 10 animals. Tumor fragments (3–4 mm edge length) were transplanted, and tumor growth was monitored until a median size of about 120–150 mm^3 was achieved. […] Both experiments were terminated after a three-week recovery phase on day 63. Animals were monitored at least twice daily on working days and at least once daily on weekends (tumor size and body weight measurement). Colon (CXF2068) and triple-negative breast cancer (TNBC) (MAXF BR120) PDX mouse models were performed as described above with changes in schedule. […] The statistical significance of antitumor efficacy was analyzed by the non-parametric Kruskal–Wallis test, followed by Dunn’s method for multiple comparisons using GraphPad Prism bioanalytic software (version 9.10), with p < 0.05 as significant. Additionally, a nonpaired t-test was performed using GraphPad Prism (version 9.10).

In another series the test system is MA4296. As to the kind of experiment: Orthotopic TNBC PDX model MA4296. The settings on record: orthotopic TNBC PDX models, both schedules. The series is classed as in vivo, mouse. The method, then: Two orthotopic TNBC PDX mouse models were performed. Tumor cells were inoculated into the mammary fat pad of mice. Therefore, the mice were anesthetized shortly before surgery. After disinfection of the skin, mice received a small incision in the skin between the 4th and 5th dug. Each mouse was implanted with 2.5 × 10^6 (MA4296) or 5 × 10^6 (MA15191) cells. Treatment started on day 20 after inoculation, when palpable tumor sizes reached 127 mm^3 (day 33 for MA15191). […] Tumors were measured twice weekly with calipers, and their volume was calculated with the following formula: (length × width^2)/2. The body weight was also determined two times weekly. Reasons for termination were tumor size > 1.5 cm^3 or poor general condition. At the end of the study, tissue sampling for IHC and PCR analyses was performed. The statistical analysis was performed using mixed-effect analysis with Tukey’s multiple comparisons test (GraphPad Prism 8.4.2) to calculate significance in tumor growth inhibition between vehicle and treatment groups over time. The Kruskal–Wallis test was used to determine significance at study days 43 and 47. Additionally, the unpaired t-test was performed.

For series [2] the following is noted: payload 1 dosed directly 1 mg/kg IV, 786-O tumor-bearing mice, cited from earlier work.
The test system of a further series is LoVo. As to the kind of experiment: In vitro proliferation (MTT) assay in presence and absence of NE, LoVo. Conditions: Homo sapiens, 72 h. The series is classed as cell-based. The method, then: (§1) The in vitro cytotoxicity was evaluated in cancer cell lines NCI-H292 and LoVo after a 72-h continuous exposure to the presence or absence of 20 nM NE using MTT assays (ATCC, Manassas, VA, USA). IC50 values were determined as the concentration of compound required for 50% inhibition of cell viability.

The subject of another series is NCI-H292. As to the kind of experiment: In vitro proliferation (MTT) assay in presence and absence of NE, NCI-H292. It is filed as cell-based. Conditions: Homo sapiens, 72 h. The method, then:
as §1

Like-named read-outs stand apart in the source and are kept apart here.

One may read the Km as the substrate concentration at which the rate is half of its maximum. In general, half-life refers to how long it takes for the measured level to halve. Read a low half-life as fast loss. Usually IC50 stands for the concentration needed to halve the response being measured.

For the molecule `CCCNC(=O)Nc1cccc(S(=O)(=O)Nc2cccc([C@@H](CC(=O)O)NC(=O)Nc3ccc(NC(=O)NCCOCCOCCOCCC(=O)N[C@@H](CC(=O)O)C(=O)N4CCC[C@H]4C(=O)N[C@H](C(=O)O[C@]4(CC)C(=O)OCc5c4cc4n(c5=O)Cc5c-4nc4ccccc4c5CC)C(C)C)cc3)c2)c1` [VIP236], the values for the Km with human NE (enzyme concentration 0.5 nmol) and in the series with human NE (enzyme concentration 1.0 nmol) were 9.4 µM and 9.6 µM, respectively. For the same molecule, the half-life in series [1] is 0.807 h. The “Tolerability (weight loss)” value with LXFL529 was “well tolerated”. Further, the Tolerability result in the series on MA4296 is listed as “well tolerated”.

`CCCNC(=O)Nc1cccc(S(=O)(=O)Nc2cccc([C@H](CC(=O)O)NC(=O)Nc3ccc(NC(=O)NCCOCCOCCOCCC(=O)N[C@@H](CC(=O)O)C(=O)N4CCC[C@H]4C(=O)N[C@H](C(=O)O[C@]4(CC)C(=O)OCc5c4cc4n(c5=O)Cc5c-4nc4ccccc4c5CC)C(C)C)cc3)c2)c1` [8e2]: the half-life in series [1] was 1.3 h.

As for `CCc1c2c(nc3ccccc13)-c1cc3c(c(=O)n1C2)COC(=O)[C@]3(O)CC` [compound 1, 7-ethyl camptothecin], the “AUCplasma of payload 1 (VIP126)” value in series [2] was 301 ng·h/mL. In addition, the “AUCtumor of payload 1 (VIP126)” value in series [2] was 185 ng·h/mL. In addition, the “AUCtumor/AUCplasma of payload 1 (VIP126)” value was 0.61 in series [2] and 0.616 in series [2] (listed as Payload 1 (VIP126)). Further, the IC50 in the series with LoVo (absence of hNE, read-out: LoVo IC50) was determined as 1.9 nM; with LoVo (presence of 20 nM hNE, read-out: LoVo + hNE IC50), 1.85 nM; in the series with NCI-H292 (absence of hNE, read-out: NCI H292 IC50), 1.54 nM; with NCI-H292 (presence of 20 nM hNE, read-out: NCI H292 + hNE IC50), 1.35 nM.
